Results from patent US20050250137A1, “Molecular targets of cancer and aging” (priority 2002, published 2005).

Experiment: GoMiner gene ontology analysis of differentially regulated genes
Set-up: species or system human
[1] = Cellular component: Chromosome, GO 0005694, Total 108
[2] = Cellular component: Cytoplasm, GO 0005737, Total 1705
[3] = Cellular component: Cytoplasmic vesicle, GO 0016023, Total 59
[4] = Cellular component: Cytoskeleton, GO 0005856, Total 334
[5] = Cellular component: Cytosol, GO 0005829, Total 176
[6] = Cellular component: Endoplasmic reticulum, GO 0005783, Total 244
[7] = Cellular component: Extracellular, GO 0005576, Total 586
[8] = Cellular component: Membrane, GO 0016020, Total 1976
[9] = Cellular component: Mitochondrion, GO 0005739, Total 315
[10] = Cellular component: Nucleus, GO 0005634, Total 1483
[11] = Cellular component: Ribosome, GO 0005840, Total 61
[12] = Cellular component: actin cytoskeleton, GO 0015629, Total 120
[13] = Cellular component: endomembrane system, GO 0012505, Total 112
[14] = Cellular component: extracellular matrix, GO 0005578, Total 181
[15] = Cellular component: extracellular space, GO 0005615, Total 228
[16] = Cellular component: integral to membrane, GO 0016021, Total 1549
[17] = Cellular component: microtubule cytoskeleton, GO 0015630, Total 78
[18] = Cellular component: mitochondrial membrane, GO 0005740, Total 75
[19] = Cellular component: nuclear membrane, GO 0005635, Total 50
[20] = Cellular component: nucleolus, GO 0005730, Total 39
[21] = Cellular component: nucleoplasm, GO 0005654, Total 91
[22] = Cellular component: plasma membrane, GO 0005886, Total 1041
[23] = Molecular function: Apoptosis regulator activity, GO 0016329, Total 44
[24] = Molecular function: Binding, GO 0005488, Total 3368
[25] = Molecular function: Catalytic activity, GO 0003824, Total 2129
[26] = Molecular function: Cell adhesion molecule activity, GO 0005194, Total 209
[27] = Molecular function: Defense/immunity protein activity, GO 0003793, Total 36
[28] = Molecular function: Enzyme regulator activity, GO 0030234, Total 306
[29] = Molecular function: Motor activity, GO 0003774, Total 61
[30] = Molecular function: Obsolete molecular function, GO 0008369, Total 419
[31] = Molecular function: Signal transducer activity, GO 0004871, Total 1157
[32] = Molecular function: Structural molecule activity, GO 0005198, Total 333
[33] = Molecular function: Transcription regulator activity, GO 0030528, Total 630
[34] = Molecular function: Translation regulator activity, GO 0045182, Total 43
[35] = Molecular function: Transporter activity, GO 0005215, Total 822
[36] = Molecular function: carrier activity, GO 0005386, Total 239
[37] = Molecular function: electron transporter activity, GO 0005489, Total 138
[38] = Molecular function: enzyme inhibitor activity, GO 0004857, Total 132
[39] = Molecular function: extracellular matrix structural constituent, GO 0005201, Total 60
[40] = Molecular function: hydrolase activity, GO 0016787, Total 917
[41] = Molecular function: kinase activity, GO 0016301, Total 409
[42] = Molecular function: lipid binding, GO 0008289, Total 94
[43] = Molecular function: metal ion binding, GO 0046872, Total 631
[44] = Molecular function: nucleic acid binding, GO 0003676, Total 1232
[45] = Molecular function: nucleotide binding, GO 0000166, Total 763
[46] = Molecular function: oxidoreductase activity, GO 0016491, Total 320
[47] = Molecular function: protein binding, GO 0005515, Total 814
[48] = Molecular function: receptor activity, GO 0004872, Total 678
[49] = Molecular function: receptor binding (under Binding), GO 0005102, Total 301
[50] = Molecular function: receptor binding (under Signal transducer activity), GO 0005102, Total 301
[51] = Molecular function: receptor signaling protein activity, GO 0005057, Total 127
[52] = Molecular function: structural constituent of cytoskeleton, GO 0005200, Total 62
[53] = Molecular function: transcription factor activity, GO 0003700, Total 472
[54] = Molecular function: transferase activity, GO 0016740, Total 706

Nc1ncn([C@H]2C[C@H](O)[C@@H](CO)O2)c(=O)n1 [5-aza-dC, 5-aza-2′-deoxycytidine]
5-aza-dC Up (Cellular component: Cellular—component unknown, GO 0008372, Total 266): 8
5-aza-dC Down [1]: 0
5-aza-dC Up [1]: 10
5-aza-dC Down [2]: 9
5-aza-dC Up [2]: 30
5-aza-dC Down [3]: 0
5-aza-dC Up [3]: 2
5-aza-dC Down [4]: 1
5-aza-dC Up [4]: 4
5-aza-dC Down [5]: 1
5-aza-dC Up [5]: 2
5-aza-dC Down [6]: 1
5-aza-dC Up [6]: 4
5-aza-dC Down [7]: 1
5-aza-dC Up [7]: 23
5-aza-dC Down [8]: 6
5-aza-dC Up [8]: 24
5-aza-dC Down [9]: 2
5-aza-dC Up [9]: 3
5-aza-dC Down [10]: 7
5-aza-dC Up [10]: 44
5-aza-dC Down [11]: 1
5-aza-dC Up [11]: 1
5-aza-dC Down [12]: 0
5-aza-dC Up [12]: 0
5-aza-dC Down [13]: 0
5-aza-dC Up [13]: 1
5-aza-dC Down [14]: 0
5-aza-dC Up [14]: 4
5-aza-dC Down [15]: 0
5-aza-dC Up [15]: 13
5-aza-dC Down [16]: 5
5-aza-dC Up [16]: 18
5-aza-dC Down [17]: 1
5-aza-dC Up [17]: 0
5-aza-dC Down [18]: 0
5-aza-dC Up [18]: 0
5-aza-dC Down [19]: 0
5-aza-dC Up [19]: 0
5-aza-dC Down [20]: 0
5-aza-dC Up [20]: 1
5-aza-dC Down [21]: 0
5-aza-dC Up [21]: 5
5-aza-dC Down [22]: 3
5-aza-dC Up [22]: 13
5-aza-dC Down [23]: 0
5-aza-dC Up [23]: 4
5-aza-dC Down [24]: 9
5-aza-dC Up [24]: 83
5-aza-dC Down [25]: 12
5-aza-dC Up [25]: 43
5-aza-dC Down [26]: 0
5-aza-dC Up [26]: 3
5-aza-dC Down [27]: 0
5-aza-dC Up [27]: 1
5-aza-dC Down [28]: 5
5-aza-dC Up [28]: 6
5-aza-dC Down [29]: 0
5-aza-dC Up [29]: 0
5-aza-dC Down [30]: 1
5-aza-dC Up [30]: 12
5-aza-dC Down [31]: 5
5-aza-dC Up [31]: 23
5-aza-dC Down [32]: 3
5-aza-dC Up [32]: 4
5-aza-dC Down [33]: 0
5-aza-dC Up [33]: 18
5-aza-dC Down [34]: 1
5-aza-dC Up [34]: 1
5-aza-dC Down [35]: 1
5-aza-dC Up [35]: 14
5-aza-dC Down [36]: 1
5-aza-dC Up [36]: 3
5-aza-dC Down [37]: 1
5-aza-dC Up [37]: 5
5-aza-dC Down [38]: 2
5-aza-dC Up [38]: 4
5-aza-dC Down [39]: 0
5-aza-dC Up [39]: 1
5-aza-dC Down [40]: 4
5-aza-dC Up [40]: 25
5-aza-dC Down [41]: 3
5-aza-dC Up [41]: 2
5-aza-dC Down [42]: 0
5-aza-dC Up [42]: 1
5-aza-dC Down [43]: 0
5-aza-dC Up [43]: 12
5-aza-dC Down [44]: 6
5-aza-dC Up [44]: 36
5-aza-dC Down [45]: 3
5-aza-dC Up [45]: 10
5-aza-dC Down [46]: 2
5-aza-dC Up [46]: 6
5-aza-dC Down [47]: 1
5-aza-dC Up [47]: 26
5-aza-dC Down [48]: 4
5-aza-dC Up [48]: 11
5-aza-dC Down [49]: 1
5-aza-dC Up [49]: 14
5-aza-dC Down [50]: 1
5-aza-dC Up [50]: 14
5-aza-dC Down [51]: 0
5-aza-dC Up [51]: 0
5-aza-dC Down [52]: 0
5-aza-dC Up [52]: 1
5-aza-dC Down [53]: 0
5-aza-dC Up [53]: 12
5-aza-dC Down [54]: 5
5-aza-dC Up [54]: 8
